Measured values as given in US6229055A, “Synthesis of fluorinated xanthene derivatives” (Molecular Probes, Inc., priority 2000, dated 2001).
Where a name gives a salt, the structure may show the parent alone.

Assays:
[1] = tested on: ATP-dependent dye efflux mechanisms in lymphoid-B cell lines; assay: Dye efflux from labeled cells with and without verapamil or probenecid, flow cytometry; type: cell-based
Method: Identical batches of lymphoid-B cell lines cells are separately incubated with […] solutions of 4,5,6,7-tetrafluorofluorescein diacetate (Compound 25), 2',7'-dichloro4,5,6,7-tetrafluorofluorescein diacetate (Compound 28), 2',4,5,6,7,7'-hexafluorofluorescein diacetate ([…]) and 2',4',5',7'-tetrafluorofluorescein diacetate. To one set of each cells is added 100 μM verapamil and to another 1 mM probenecid, both of which are known to block ATP-dependent dye efflux mechanisms, as found in multidrug resistant of cells. Without washing, the cells are analyzed for brightness by flow cytometry using 488-nm excitation.

[2] = tested on: human lymphoid B-cell culture; assay: Cell labeling with fluorinated fluorescein diacetates, flow cytometry; type: cell-based; conditions: 1 μM, 37° C., 30 minutes, washed, fixed; compared with FDA after two hours (FIG. 5)
Method: Cells from a human lymphoid B-cell culture in RPMI 1640 medium are treated with 1 μM Compound 25 (4,5,6,7-TFFDA), Compound 26 (2',4,5,6,7,7'-HFFDA), or fluorescein diacetate (FDA) at 37° C. for 30 minutes. Following centrifugation and washing in PBS, the pellets are resuspended in RPMI 1640 medium for 15 min, recentrifuged and washed in PBS, fixed with 3.7% formaldehyde in PBS and analyzed by flow cytometry using 488 nm excitation. […] Alternatively, the stained and washed cells are viewed or analyzed without fixation.

[3] = target: Escherichia coli β-galactosidase (Escherichia coli, UniProt P00722); assay: Labeling β-galactosidase with a fluorinated fluorescein diacetate; conditions: 3 mg enzyme in PBS pH 7.5, 13.6 μL of 1 mg/mL dye, 1 hour; estimated with ε=85,600 cm^-1 M^-1 at 515 nm
Method: Escherichia coli β-galactosidase (3 mg) in 150 μL phosphate-buffered saline pH 7.5 is treated with 13.6 μL of a 1 mg/mL stock solution of 4,5,6,7-tetrafluorofluorescein diacetate (Compound 25) in DMSO. After 1 hour the pH is raised to 10 with Na2 CO3 for 2 hours to remove the acetates. Unreacted dye is removed on a spin column. The degree of substitution is estimated at 8.6 using κ=85,600 cm^-1 M^-1 at 515 nm.

[4] = Photodecomposition on illumination in fluorometer; type: physicochemical; conditions: % of decreased fluorescence intensity after 33 minutes of illumination in fluorometer at wavelength of maximum excitation
Method: *% of decreased fluorescence intensity after 33 minutes of illumination in
fluorometer at wavelength of maximum excitation

[5] = pH titration of fluorophores (pKa); conditions: Table 1
Method: The dye of interest is first dissolved in a series of buffers that have each been calibrated using a pH meter. Acetate buffers are typically used in the range of pH 46, and phosphate buffers in the pH range 68. Absorption measurements are made using solutions that are approximately 10 1M in concentration, and fluorescence measurements are made using solutions that are approximately 1 μM in concentration. The absorption or emission data is then plotted versus pH to determine pKa values.

[6] = Spectral properties of selected fluorinated fluoresceins and rhodols; type: physicochemical
[7] = target: T1, acid β-galactosidase from bovine testes (Bos taurus, UniProt Q58D55); assay: Detection of acid β-galactosidase activity; type: biochemical; conditions: 50 μM substrate, 4.6 nM enzyme, pH 4.5, excitation 490 nm, emission 512 nm
T1 construct: from tissue; host or cells: bovine testes
T1 sequence (Q58D55 28-653): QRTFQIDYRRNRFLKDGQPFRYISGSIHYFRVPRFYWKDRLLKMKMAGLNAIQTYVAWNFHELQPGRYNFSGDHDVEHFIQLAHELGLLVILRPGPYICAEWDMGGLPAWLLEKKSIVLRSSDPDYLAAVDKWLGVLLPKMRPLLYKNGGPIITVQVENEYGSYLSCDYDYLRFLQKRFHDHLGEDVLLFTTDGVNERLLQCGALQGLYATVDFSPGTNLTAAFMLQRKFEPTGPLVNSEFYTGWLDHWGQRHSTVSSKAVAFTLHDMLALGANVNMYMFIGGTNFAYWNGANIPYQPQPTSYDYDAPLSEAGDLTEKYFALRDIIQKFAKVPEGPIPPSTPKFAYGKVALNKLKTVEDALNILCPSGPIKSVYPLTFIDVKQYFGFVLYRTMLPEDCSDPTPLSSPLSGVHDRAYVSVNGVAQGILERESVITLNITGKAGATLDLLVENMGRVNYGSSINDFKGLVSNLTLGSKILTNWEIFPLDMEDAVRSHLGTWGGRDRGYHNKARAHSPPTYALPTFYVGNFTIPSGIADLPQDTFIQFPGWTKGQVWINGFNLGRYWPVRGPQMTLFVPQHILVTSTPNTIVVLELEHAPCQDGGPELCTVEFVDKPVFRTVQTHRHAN
Method: The fluorescence resulting from the action of acid β-galactosidase from bovine testes on fluorescein digalactoside (FDG) and DFFDG is compared. The fluorescence increase at 512 nm when excited at 490 nm is measured versus time for 50 μM substrate with 4.6 nM enzyme in assay buffer (200 mM sodium phosphate +75 mM citric acid, pH 4.5). The initial rate of fluorescence production from DFFDG is 3.0 times that obtained using FDG.

[8] = target: T2, Endogenous (Lysosomal) β-galactosidase in NIH 3T3 cells (Mus musculus, UniProt P23780); assay: Detection of endogenous (lysosomal) β-galactosidase activity in intact cells by flow cytometry; type: cell-based; conditions: 1 μM, 37° C., 30 minutes; for Fluorescence Emission: normalized to FDG, Table 4
T2 construct: Endogenous (Lysosomal) β-galactosidase Activity in Intact Cells; endogenous in cells; host or cells: NIH 3T3
T2 sequence (P23780 30-647): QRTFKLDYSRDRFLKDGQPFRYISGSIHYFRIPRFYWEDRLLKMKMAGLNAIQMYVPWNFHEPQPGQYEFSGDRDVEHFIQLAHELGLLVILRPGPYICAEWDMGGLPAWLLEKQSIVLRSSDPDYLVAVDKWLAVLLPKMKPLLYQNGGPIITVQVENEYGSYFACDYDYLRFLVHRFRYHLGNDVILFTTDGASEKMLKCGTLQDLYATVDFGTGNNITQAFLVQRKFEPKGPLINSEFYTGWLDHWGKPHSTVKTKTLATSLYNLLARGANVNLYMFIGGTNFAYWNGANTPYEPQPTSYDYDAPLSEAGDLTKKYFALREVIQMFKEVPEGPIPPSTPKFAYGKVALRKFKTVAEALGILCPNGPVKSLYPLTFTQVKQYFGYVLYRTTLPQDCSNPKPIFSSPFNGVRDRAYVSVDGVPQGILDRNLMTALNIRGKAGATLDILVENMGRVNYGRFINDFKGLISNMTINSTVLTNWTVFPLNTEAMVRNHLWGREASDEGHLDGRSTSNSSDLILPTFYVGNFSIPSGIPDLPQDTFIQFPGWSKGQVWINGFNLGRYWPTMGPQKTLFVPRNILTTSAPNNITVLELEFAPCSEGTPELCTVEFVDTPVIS
Method: NIH 3T3 cells that are not transfected with exogenous β-galactosidase were cultured in Dulbecco's Modified Minimal Essential Medium supplemented with 10% fetal bovine serum and 2 mM L-glutamine. Stock solutions of TFMFDG and TFFDG in phosphate buffered saline (PBS) are added to the cell culture medium to obtain a final dye concentration of 1 μM. The cells are incubated at 37° C. for 30 minutes, put on ice and assayed immediately by flow cytometry using a FACS-Vantage instrument equipped with an argon-ion laser (488 nm excitation). Fluorescence emission is collected using a 515 nm long-pass filter and a single photomultiplier tube.

[9] = target: prostatic acid phosphatase (Homo sapiens, UniProt P15309); assay: Detection of acid phosphatase activity; type: biochemical; conditions: 10 μM substrate, 0.1 units enzyme, pH 5, excitation 490 nm, emission 515 nm
Method: The rate of fluorescent product generation is measured by exciting a solution of 10 μM DFFDP or fluorescein diphosphate (FDP) at 490 nm while monitoring the emission at 515 nm in a fluorometer in the presence of 0.1 units of prostatic acid phosphatase at pH 5. Under these conditions, acid phosphatase produces about a 6.5 times greater change in signal using DFFP than FDP.

[10] = Ca2+ binding affinity of BAPTA conjugate (Calcium Calibration Buffer Kit II)
Method: The fluorescence response and dissociation constant of the fluorescent BAPTA conjugates are determined using the Calcium Calibration Buffer Kit II (Molecular Probes, Inc.; Eugene Oreg.), which is based on a method described by Tsien et al. METH. ENZYM. 172, 230 (1989). For example, 1 mg of Compound 103 is dissolved in deionized water and 5 μL is diluted into 3 mL of each of two buffers, which are cross diluted to arrive at a series of Ca^2+ concentrations between zero and 35 μM. Emission spectra of the dye solutions are scanned between dilutions to generate a family of curves. Each of these curves has maximal fluorescence emission at approximately 530 nm with an increase in fluorescence emission intensity with increasing Ca^2+ concentration. This intensity change is plotted against the concentration of free Ca^2+ to give a value for the dissociation constant of the indicator. […] The calculated dissociation constant at 20° C. is 169 nM.

Sequence of Escherichia coli β-galactosidase (P00722 2-1024): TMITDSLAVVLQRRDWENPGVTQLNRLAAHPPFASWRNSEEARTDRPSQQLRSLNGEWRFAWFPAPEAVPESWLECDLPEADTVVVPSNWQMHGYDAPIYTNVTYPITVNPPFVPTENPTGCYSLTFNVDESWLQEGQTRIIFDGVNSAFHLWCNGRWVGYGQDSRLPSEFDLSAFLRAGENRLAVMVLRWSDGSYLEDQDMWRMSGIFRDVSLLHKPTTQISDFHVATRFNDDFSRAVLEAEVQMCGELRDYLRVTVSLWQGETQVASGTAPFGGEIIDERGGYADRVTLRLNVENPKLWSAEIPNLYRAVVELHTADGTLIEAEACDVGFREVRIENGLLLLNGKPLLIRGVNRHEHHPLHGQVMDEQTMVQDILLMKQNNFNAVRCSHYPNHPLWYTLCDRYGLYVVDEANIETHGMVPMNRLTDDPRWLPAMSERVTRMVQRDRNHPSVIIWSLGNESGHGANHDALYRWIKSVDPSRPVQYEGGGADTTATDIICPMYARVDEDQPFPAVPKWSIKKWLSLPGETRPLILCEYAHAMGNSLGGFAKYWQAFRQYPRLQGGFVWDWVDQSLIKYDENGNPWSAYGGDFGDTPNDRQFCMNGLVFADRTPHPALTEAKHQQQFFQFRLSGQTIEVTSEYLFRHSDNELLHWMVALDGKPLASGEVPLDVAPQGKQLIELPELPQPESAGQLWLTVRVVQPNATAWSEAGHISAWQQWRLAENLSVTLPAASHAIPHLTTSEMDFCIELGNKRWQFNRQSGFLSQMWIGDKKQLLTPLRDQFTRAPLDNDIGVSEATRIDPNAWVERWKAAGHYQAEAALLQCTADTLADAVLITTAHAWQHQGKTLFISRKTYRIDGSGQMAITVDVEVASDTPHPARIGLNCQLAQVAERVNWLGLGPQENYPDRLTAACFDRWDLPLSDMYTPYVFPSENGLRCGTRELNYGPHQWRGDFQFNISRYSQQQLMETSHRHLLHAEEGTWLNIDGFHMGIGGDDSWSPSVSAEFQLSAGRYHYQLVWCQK
Sequence of prostatic acid phosphatase (P15309 33-386): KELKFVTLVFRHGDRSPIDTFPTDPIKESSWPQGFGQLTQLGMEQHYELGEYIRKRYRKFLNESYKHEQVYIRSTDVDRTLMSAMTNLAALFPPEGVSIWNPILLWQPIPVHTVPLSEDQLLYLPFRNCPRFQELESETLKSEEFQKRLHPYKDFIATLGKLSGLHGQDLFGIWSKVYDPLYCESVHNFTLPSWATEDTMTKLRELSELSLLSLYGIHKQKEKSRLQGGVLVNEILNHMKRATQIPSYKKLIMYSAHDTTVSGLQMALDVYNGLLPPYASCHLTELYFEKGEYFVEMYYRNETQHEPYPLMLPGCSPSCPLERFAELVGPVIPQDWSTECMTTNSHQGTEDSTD

Row | Compound | Mean Fluorescence intensity of labeled cells ([1]; 100 μM verapamil) | Mean Fluorescence intensity of labeled cells ([1]; 1 mM Probenecid) | Mean Fluorescence intensity of labeled cells ([1]; No drug) | fluorescence of stained cells [2] | Fluorescence Emission [8] | also measured
1 | CC(=O)Oc1c(F)cc2c(c1F)Oc1c(cc(F)c(OC(C)=O)c1F)C21OC(=O)c2ccccc21 [2',4',5',7'-TFFDA, 2',4',5',7'-tetrafluorofluorescein diacetate] | 14.0 | 12.8 | 2.9 | weakly fluorescent | – | –
2 | CC(=O)Oc1ccc2c(c1)Oc1cc(OC(C)=O)ccc1C21OC(=O)c2c(F)c(F)c(F)c(F)c21 [Compound 25, 4,5,6,7-tetrafluorofluorescein Diacetate] | 1892 | 2521 | 732 | significantly higher fluorescence | – | protein labeling (degree of substitution) [3]: 8.6
3 | CC(=O)Oc1cc2c(cc1F)C1(OC(=O)c3c(F)c(F)c(F)c(F)c31)c1cc(F)c(OC(C)=O)cc1O2 [Compound 27, 2',4,5,6,7,7'-hexafluorofluorescein Diacetate] | 212 | 172 | 26.9 | significantly higher fluorescence | – | –
4 | O=C1OC2(c3ccc(O)cc3Oc3cc(O)ccc32)c2c(F)c(F)c(F)c(F)c21 [Compound 34, 4,5,6,7-tetrafluorofluorescein] | – | – | – | – | – | photodecomposition [4]: 6.6%; pKa [5]: 6.1; protein labeling (degree of substitution) [3]: minimal protein labeling; Abs. ([6]; absorption maximum): 508 nm; Em. ([6]; emission maximum): 527 nm; ε × 10^-3 ([6]; extinction coefficient, value is ε × 10^-3): 85.6 cm^-1 M^-1; Quantum Yield ([6]; fluorescence quantum yield): 0.85
5 | O=C1OC2(c3cc(F)c(O[C@@H]4O[C@H](CO)[C@H](O)[C@H](O)[C@H]4O)cc3Oc3cc(O[C@@H]4O[C@H](CO)[C@H](O)[C@H](O)[C@H]4O)c(F)cc32)c2ccccc21 [Compound 94, 2',7'-difluorofluorescein, bis-O-galactoside] | – | – | – | – | – | initial rate of fluorescence production relative to FDG [7]: 3.0 times
6 | O=C1OC2(c3ccc(O[C@@H]4O[C@H](CO)[C@H](O)[C@H](O)[C@H]4O)cc3Oc3cc(O[C@@H]4O[C@H](CO)[C@H](O)[C@H](O)[C@H]4O)ccc32)c2c(F)c(F)c(F)c(F)c21 [Compound 95, 4,5,6,7-tetrafluorofluorescein, bis-O-galactoside] | – | – | – | – | 4.1 | fluorescence signal relative to FDG [8]: 4.1 times
7 | O=C1OC2(c3cc(F)c(OP(=O)(O)O)cc3Oc3cc(OP(=O)(O)O)c(F)cc32)c2ccccc21 [Compound 96, 2',7'-fluorofluorescein Diphosphate, Tetraammonium Salt] | – | – | – | – | – | change in signal relative to FDP [9]: ~6.5 times
8 | O=C(O)CN(CC(=O)O)c1ccccc1OCCOc1cc(NC(=O)c2ccc3c(c2)C(=O)OC32c3cc(F)c(O)cc3Oc3cc(O)c(F)cc32)ccc1N(CC(=O)O)CC(=O)O [Compound 103] | – | – | – | – | – | fluorescence emission intensity increase ([10]; Ca^2+ from zero to 35 μM, emission approximately 530 nm): approximately 17 fold; Kd ([10]; Ca^2+, 20° C., read-out: dissociation constant): 169 nM
9 | O=C1OC2(c3ccc(O[C@@H]4O[C@H](CO)[C@H](O)[C@H](O)[C@H]4O)cc3Oc3cc(O[C@@H]4O[C@H](CO)[C@H](O)[C@H](O)[C@H]4O)ccc32)c2ccccc21 [FDG, fluorescein digalactoside, reference compound] | – | – | – | – | 1.0 | –
10 | COc1c(F)c(F)c2c(c1F)C1(OC2=O)c2ccc(O[C@@H]3O[C@H](CO)[C@H](O)[C@H](O)[C@H]3O)cc2Oc2cc(O[C@@H]3O[C@H](CO)[C@H](O)[C@H](O)[C@H]3O)ccc21 [TFMFDG, 4,5,7-trifluoro-6-methoxyfluorescein Digalactoside] | – | – | – | – | 48.1 | fluorescence signal relative to FDG [8]: 48.1 times
